This passage reports blood pressure results from patent publication EP2326328B1, “USE OF DIHYDRALAZINE FOR THE TREATMENT OF DISEASES RELATED TO ELEVATED SEMICARBAZIDE SENSITIVE AMINE-OXIDASE (SSAO) ACTIVITY” (Semmelweis Egyetem, priority 2008, dated 2010).

This data set is described as follows: blood pressure and pulse of treated type 2 diabetic patients. It is filed as in vivo, human. The note with it: type 2 diabetic patients, oral 14.5 mg dihydralazine sulphate twice daily. Here is the method: After giving their informed consent, patients participating in the study were treated for 56 days taking ½ tablet twice daily of a pharmaceutical composition containing 28.9 mg dihydralazine sulphate (i.e. the ½ tablet contained 14.5 mg dihydralazine sulphate).
To measure the efficacy and monitor the safety of the treatment, the following examinations were carried out before starting the treatment and at the 1., 7., 14., 28. and 56. day of the treatment: • 1. ocular examinations: visual acuity (ETDRS chart), slit-lamp examination, measurement of intraocular pressure with applanation tonometry, fundus biomicroscopy with pupil dilation, digital fundus photography. The grade of macular edema was determined via measuring retinal thickness with optical coherency tomography (OCT). • 2. internal medicine examinations: anamnesis, physical examinations, blood pressure, pulse, urine examination. • 3. laboratory examinations: blood glucose, HbA1c, liver function, kidney function, microalbuminuria, metabolic panel of the blood , lipids, CRP.
In the table the following abbreviations were used: • BMI: body mass index - weight (kg) / height (m^2) • RRsyst: blood pressure (systolic) (Hgmm) • RRdiast: blood pressure (diastolic) (Hgmm) • OCT CST (central subfield thickness): the average thickness of the central 1-mm area of the macula • OCT CPT (center point thickness): the thickness of the center point of the retina; normally that is the thinnest point of the macula Table 4.

Take dihydralazine sulphate: the blood pressure result is given as “no appreciable lowering of blood pressure was observed”.
